Earlier results, collected in patent publication US10806826B2, “Bone graft substitute containing a temporary contrast agent and a method of generating such and a method of use thereof” (BACTERIN INTERNATIONAL, INC., priority 2013, dated 2020).
Where two headings read alike, the source gives them in different places.

How the values were obtained:
[1] = intravenous
[2] = intravascular
[3] = oral, dosage 2-12 mL/kg

In the case of `CC(=O)N(CC(O)CO)c1c(I)c(C(=O)NCC(O)CO)c(I)c(C(=O)NCC(O)CO)c1I` (stereo not shown) [Iohexol], the “Clearance/Half-life (t1/2)” value ([1]; dosage varies by imaging needs) is listed as “t1/2 = 30-60 minutes” and the “Clearance: excreted within 24 hours” value ([2]; dosage 500-1500 mgl/kg) is listed as about 90% excreted.

For `FC1(F)C(F)(F)C(F)(F)C2(F)C(F)(F)C(F)(F)C(F)(F)C(F)(F)C2(F)C1(F)F` (stereo not shown) [Perfluorodecalin], the “Clearance/Half-life (t1/2)” value [1] is given as 140 h.

For `FC(F)(F)C(F)(F)C(F)(F)C(F)(F)C(F)(F)C(F)(F)C(F)(F)C(F)(F)Br` [Perfluorooctyl bromide, perfluorooctyl bromide], the “Clearance/Half-life (t1/2)” value ([2]; dosage 1.2 g/kg) is listed as 9.4 h, the “Clearance/Half-life (t1/2)” value ([2]; dosage 1.8 g/kg) is listed as “t1/2 = 6.1 hours” and the “Clearance: excreted within 24 hours” value [3] is listed as over 95% excreted.

In the case of `FC(F)(F)C(F)(F)C(F)(F)N(C(F)(F)C(F)(F)C(F)(F)F)C(F)(F)C(F)(F)C(F)(F)F` [Perfluorotripropylamine], the “Clearance/Half-life (t1/2)” value [1] is given as 1510 h.
